From the supplement of paper PMC10307832

What was measured:
Experiment in all cases: relative viability (nuclei count vs DMSO), 5 days (fraction); higher = more cells survive
Bleomycin + Pictilisib = compound: CC1=C(N=C(N=C1N)[C@H](CC(=O)N)NC[C@@H](C(=O)N)N)C(=O)N[C@@H]([C@H](C2=CN=CN2)OC3C(C(C(C(O3)CO)O)O)OC4C(C(C(C(O4)CO)O)OC(=O)N)O)C(=O)N[C@H](C)[C@H]([C@H](C)C(=O)N[C@@H]([C@@H](C)O)C(=O)NCCC5=NC(=CS5)C6=NC(=CS6)C(=O)NCCC[S+](C)C)O [Bleomycin] + CS(=O)(=O)N1CCN(Cc2cc3nc(-c4cccc5[nH]ncc45)nc(N4CCOCC4)c3s2)CC1 [Pictilisib] (partner 1 µM); conditions: main component drawn
How it was run: (§1)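 Each reported value is a median over duplicate plates. It expresses relative viability: treated-well nuclei count divided by vehicle-well nuclei count. Lung cancer cell lines in 1536-well plates were dosed by pin tool a day after seeding, alone with one drug or with a fixed anchor-drug dose plus five library-drug doses (not always all listed) in √10 steps, and nuclei were counted after 5 days.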

Bleomycin + Alpelisib = compound: CC1=C(N=C(N=C1N)[C@H](CC(=O)N)NC[C@@H](C(=O)N)N)C(=O)N[C@@H]([C@H](C2=CN=CN2)OC3C(C(C(C(O3)CO)O)O)OC4C(C(C(C(O4)CO)O)OC(=O)N)O)C(=O)N[C@H](C)[C@H]([C@H](C)C(=O)N[C@@H]([C@@H](C)O)C(=O)NCCC5=NC(=CS5)C6=NC(=CS6)C(=O)NCCC[S+](C)C)O [Bleomycin] + Cc1nc(NC(=O)N2CCC[C@H]2C(N)=O)sc1-c1ccnc(C(C)(C)C(F)(F)F)c1 [Alpelisib] (partner 2 µM); conditions: main component drawn
How it was run: as §1

Bleomycin = compound: CC1=C(N=C(N=C1N)[C@H](CC(=O)N)NC[C@@H](C(=O)N)N)C(=O)N[C@@H]([C@H](C2=CN=CN2)OC3C(C(C(C(O3)CO)O)O)OC4C(C(C(C(O4)CO)O)OC(=O)N)O)C(=O)N[C@H](C)[C@H]([C@H](C)C(=O)N[C@@H]([C@@H](C)O)C(=O)NCCC5=NC(=CS5)C6=NC(=CS6)C(=O)NCCC[S+](C)C)O [Bleomycin]; conditions: main component drawn
How it was run: (§2)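 MetaXpress counted nuclei in 4× images of lung cancer cell lines that had been fixed, permeabilised and Hoechst-stained in one step. Before that, cells in 1536-well plates were kept overnight at 37 °C, pinned with five √10-spaced library-drug doses on vehicle-anchored plates, and cultured 5 days without medium change. Viability takes treated-well nuclei over vehicle-well nuclei and uses the median across plates. Plates were accepted only at control CV below 25% and at least one doubling.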

Etoposide = compound: COc1cc([C@@H]2c3cc4c(cc3[C@@H](O[C@@H]3O[C@@H]5CO[C@@H](C)O[C@H]5[C@H](O)[C@H]3O)[C@H]3COC(=O)[C@H]23)OCO4)cc(OC)c1O [Etoposide]
How it was run: as §2

With UMC-11 as the cell line, how does the relative viability (Bleomycin + Pictilisib; first compound 0.01 µM) read?
The relative viability was 0.842.

And the relative viability (Bleomycin + Pictilisib; first compound 0.03162 µM)?
Its relative viability is 0.661.

What about the relative viability (Bleomycin + Pictilisib; first compound 0.1 µM) of the same cell line?
Its relative viability is 0.827.

And the relative viability (Bleomycin + Pictilisib; first compound 0.3162 µM)?
The relative viability was 0.66.

What about the relative viability (Bleomycin + Pictilisib; first compound 1 µM) of the same cell line?
The relative viability was 0.577.

What about the relative viability (Bleomycin + Alpelisib; first compound 0.01 µM) of the same cell line?
The relative viability was 0.873.

And the relative viability (Bleomycin + Alpelisib; first compound 0.03162 µM)?
The relative viability was 0.935.

What about the relative viability (Bleomycin + Alpelisib; first compound 0.1 µM) of the same cell line?
The relative viability was 0.826.

And the relative viability (Bleomycin + Alpelisib; first compound 0.3162 µM)?
Its relative viability is 0.598.

What about the relative viability (Bleomycin + Alpelisib; first compound 1 µM) of the same cell line?
The relative viability was 0.44.

And the relative viability (Bleomycin; 0.01 µM)?
Its relative viability is 0.936.

What about the relative viability (Bleomycin; 0.03162 µM) of the same cell line?
Its relative viability is 0.918.

What about the relative viability (Bleomycin; 0.1 µM) of the same cell line?
Its relative viability is 0.922.

And the relative viability (Bleomycin; 0.3162 µM)?
Its relative viability is 0.769.

What about the relative viability (Bleomycin; 1 µM) of the same cell line?
The relative viability was 0.496.

What about the relative viability (Etoposide; 0.01 µM) of the same cell line?
Its relative viability is 0.999.

What about the relative viability (Etoposide; 0.03162 µM) of the same cell line?
The relative viability was 1.06.

And the relative viability (Etoposide; 0.1 µM)?
The relative viability was 0.507.

And the relative viability (Etoposide; 0.3162 µM)?
Its relative viability is 0.607.

What about the relative viability (Etoposide; 1 µM) of the same cell line?
Its relative viability is 0.343.
